Experimental data from ChEMBL document CHEMBL3774361, “Synthesis and evaluation of thieno[2,3-d]pyrimidin-4(3H)-ones as potential antitubercular agents” (Medchemcomm, 2015).
Values after ≈ are worked out from the molar mass of the structure shown.

Legend:
[1] = Cytotoxicity against human MCF7 cells incubated for 1 to 11 days by MTT assay; assay type: cell-based
[2] = Cytotoxicity against human HCT116 cells incubated for 1 to 11 days by MTT assay; assay type: cell-based, HCT-116
[3] = Selectivity index, ratio of GI50 for human HCT116 cells to MIC90 for active stage of Mycobacterium tuberculosis H37Ra; assay type: toxicity, cell-based, HCT-116; conditions: read-out: Selectivity Index
[4] = Cytotoxicity against human THP1 cells incubated for 1 to 11 days by MTT assay; assay type: cell-based, THP-1
[5] = test system: Mycobacterium tuberculosis; test: Antitubercular activity against dormant stage of Mycobacterium tuberculosis H37Ra assessed as cell viability after 12 days by XTT reduction menadione assay; assay type: functional; conditions: 288 h
[6] = Antibacterial activity against dormant stage of Mycobacterium bovis BCG ATCC 35743 assessed as cell viability after 12 days by nitrate reductase assay; assay type: functional, Mycobacterium bovis BCG str. ATCC 35743; conditions: Mycobacterium tuberculosis variant bovis BCG, ATCC 35743, 288 h
[7] = Selectivity index, ratio of GI50 for human THP1 cells to MIC90 for active stage of Mycobacterium bovis BCG ATCC 35743; assay type: toxicity, cell-based, THP-1; conditions: read-out: Selectivity Index
[8] = Antibacterial activity against active stage of Mycobacterium bovis BCG ATCC 35743 assessed as cell viability after 8 days by nitrate reductase assay; assay type: functional, Mycobacterium bovis BCG str. ATCC 35743; conditions: Mycobacterium tuberculosis variant bovis BCG, ATCC 35743, 192 h
[9] = Selectivity index, ratio of GI50 for human MCF7 cells to MIC90 for active stage of Mycobacterium bovis BCG ATCC 35743; assay type: toxicity, cell-based; conditions: read-out: Selectivity Index
[10] = Selectivity index, ratio of GI50 for human A549 cells to MIC90 for active stage of Mycobacterium tuberculosis H37Ra; assay type: toxicity, cell-based; conditions: read-out: Selectivity Index
[11] = Selectivity index, ratio of GI50 for human THP1 cells to MIC90 for active stage of Mycobacterium tuberculosis H37Ra; assay type: toxicity, cell-based, THP-1; conditions: read-out: Selectivity Index
[12] = Selectivity index, ratio of GI50 for human MCF7 cells to MIC90 for active stage of Mycobacterium tuberculosis H37Ra; assay type: toxicity, cell-based; conditions: read-out: Selectivity Index
[13] = Cytotoxicity against human A549 cells incubated for 1 to 11 days by MTT assay; assay type: cell-based; conditions: A549 cells
[14] = Selectivity index, ratio of GI50 for human A549 cells to MIC90 for active stage of Mycobacterium bovis BCG ATCC 35743; assay type: toxicity, cell-based; conditions: read-out: Selectivity Index
[15] = Selectivity index, ratio of GI50 for human HCT116 cells to MIC90 for active stage of Mycobacterium bovis BCG ATCC 35743; assay type: toxicity, cell-based, HCT-116; conditions: read-out: Selectivity Index
[16] = test system: Mycobacterium tuberculosis; test: Antitubercular activity against active stage of Mycobacterium tuberculosis H37Ra assessed as cell viability after 8 days by XTT reduction menadione assay; assay type: functional; conditions: 192 h

Structure (SMILES) | GI50 [1] [µg/mL] | GI50 [2] [µg/mL] | selectivity ratio [3] | GI50 [4] [µg/mL] | MIC90 [5] [µg/mL] | MIC90 [6] [µg/mL] | selectivity ratio [7] | MIC90 [8] [µg/mL] | selectivity ratio [9] | selectivity ratio [10] | selectivity ratio [11] | selectivity ratio [12] | GI50 [13] [µg/mL] | selectivity ratio [14] | selectivity ratio [15] | MIC90 [16]
CCCCCn1cnc2sc(CC)cc2c1=O | > 100 | > 100 | 2 | > 100 | 43.8 (≈ 175 µM) | 20.8 (≈ 82.9 µM) | 10 | 10.1 (≈ 40.3 µM) | > 10 | 2 | 2 | 2 | > 100 | > 10 | 10 | 44.1 µg/mL
CCCCCCCc1cc2c(=O)n(CC3CC3)cnc2s1 | > 100 | > 100 | 2 | > 100 | 49.1 (≈ 161 µM) | 2.01 (≈ 6.6 µM) | 66 | 1.52 (≈ 4.99 µM) | > 66 | 2 | 2 | 2 | > 100 | > 66 | 66 | 49.3 µg/mL
CCCCCCCc1cc2c(=O)n(CCN=[N+]=[N-])cnc2s1 | > 100 | > 100 | 48 | > 100 | 8.33 (≈ 26.1 µM) | 2.26 (≈ 7.08 µM) | 77 | 1.3 (≈ 4.07 µM) | > 77 | 48 | 48 | 48 | > 100 | > 77 | 77 | 6.5 µM
CCCCCCCCCCc1cc2c(=O)n(CCO)cnc2s1 | > 100 | > 100 | 15 | > 100 | 15 (≈ 44.6 µM) | 23.4 (≈ 69.6 µM) | 5 | 21.4 (≈ 63.7 µM) | > 5 | 15 | 15 | 15 | > 100 | > 5 | 5 | 6.7 µg/mL
CCCCCCCc1cc2c(=O)n(CC#N)cnc2s1 | > 100 | > 100 | 40 | > 100 | 5.2 (≈ 18 µM) | 3.02 (≈ 10.4 µM) | 53 | 1.89 (≈ 6.53 µM) | > 53 | 40 | 40 | 40 | > 100 | > 53 | 53 | 8.68 µM
CCCCCCCc1cc2c(=O)n(CCCBr)cnc2s1 | 19.7 (≈ 53 µM) | > 100 | 6 | > 100 | 18.5 (≈ 49.8 µM) | 9.37 (≈ 25.2 µM) | 16 | 6.3 (≈ 17 µM) | 3 | 2 | 6 | 1 | 34.1 (≈ 92 µM) | 5 | 16 | 17.5 µg/mL
CCCCCc1cc2c(=O)n(CCC)cnc2s1 | 33.8 (≈ 128 µM) | > 100 | 2 | > 100 | 36.3 (≈ 137 µM) | 9.82 (≈ 37.1 µM) | 12 | 8.51 (≈ 32.2 µM) | 4 | 1 | 2 | 1 | 27.4 (≈ 103 µM) | 3 | 12 | 42.9 µg/mL
C=CCCCCCCCc1cc2c(=O)n(CCBr)cnc2s1 | 26.1 (≈ 68.1 µM) | 42.4 (≈ 111 µM) | 12 | > 100 | 6.31 (≈ 16.5 µM) | 1.4 (≈ 3.65 µM) | 41 | 2.42 (≈ 6.31 µM) | 11 | 13 | 29 | 7 | 45.4 (≈ 119 µM) | 19 | 18 | 3.5 µg/mL
CCCCCc1cc2c(=O)n(CC3CC3)cnc2s1 | > 100 | > 100 | 3 | > 100 | > 50 | 8.07 (≈ 29.2 µM) | 20 | 4.95 (≈ 17.9 µM) | > 20 | 3 | 3 | 3 | > 100 | > 20 | 20 | 38.3 µg/mL
CCCCCCCCCCc1cc2c(=O)n(CCBr)cnc2s1 | 20.5 (≈ 51.4 µM) | > 100 | 4 | > 100 | 35.2 (≈ 88.2 µM) | 3.35 (≈ 8.39 µM) | 44 | 2.29 (≈ 5.73 µM) | 9 | 1 | 4 | 1 | 35.1 (≈ 87.8 µM) | 15 | 44 | 24.6 µg/mL
CCCCCCc1cc2c(=O)n(CC3CC3)cnc2s1 | 24.8 (≈ 85.5 µM) | 17.6 (≈ 60.7 µM) |  | > 100 | 42.7 (≈ 147 µM) | 2.34 (≈ 8.06 µM) | 73 | 1.37 (≈ 4.72 µM) | 18 | 2 | 2 | 1 | > 100 | > 73 | 13 | 45.9 µg/mL
CC(=O)O[C@H]1C(=O)[C@@]2(C)[C@H]([C@H](OC(=O)c3ccccc3)[C@]3(O)C[C@H](OC(=O)[C@H](O)[C@@H](NC(=O)c4ccccc4)c4ccccc4)C(C)=C1C3(C)C)[C@]1(OC(C)=O)CO[C@@H]1C[C@@H]2O [PACLITAXEL] | 0.0048 (≈ 0.00562 µM) | 0.026 (≈ 0.0304 µM) |  | 0.137 (≈ 0.161 µM) |  |  |  |  |  |  |  |  |  |  |  | 
CO[C@H]1/C=C/O[C@@]2(C)Oc3c(C)c(O)c4c(O)c(c(/C=N/N5CCN(C)CC5)c(O)c4c3C2=O)NC(=O)/C(C)=C\C=C\[C@H](C)[C@H](O)[C@@H](C)[C@@H](O)[C@@H](C)[C@H](OC(C)=O)[C@@H]1C [RIFAMPIN] | > 100 | > 100 | 196 | > 100 | 0.75 (≈ 0.911 µM) | 0.81 (≈ 0.984 µM) | 222 | 0.45 (≈ 0.547 µM) |  | 196 | 196 | 196 | > 100 |  | 222 | 0.51 µg/mL
